≈ marks a conversion by molar mass, not a printed value. Read-outs that look alike come from different tables or passages of the source. Numbered stars: 1 amine (or outer) side, 2 acyl side, 3 side chain; on linkers, the order of the positions; unused ones are H or OH. Square brackets hold non-standard residues; d marks the D form. Peptide text beside a SMILES is read from it. X28 = C[C@H](CCN1CCC(c2ccccc2)CC1)[C@@H](O)[C@H](C(=O)[*:2])N(C)[*:1]; X22 = C[C@H](Cc1nc2ccccc2[nH]1)[C@@H](O)[C@H](C(=O)[*:2])N(C)[*:1]; X12 = C[C@H](CCN(C)Cc1ccncc1)[C@@H](O)[C@H](C(=O)[*:2])N(C)[*:1]; X24 = C[C@H](CCN(C)CC1COCCO1)[C@@H](O)[C@H](C(=O)[*:2])N(C)[*:1]; X1 = Cc1cccc(CCC[C@@H](C)[C@@H](O)[C@H](C(=O)[*:2])N(C)[*:1])n1; X8 = C[C@H](CCN1CCC[C@H]1CO)[C@@H](O)[C@H](C(=O)[*:2])N(C)[*:1]; X15 = C[C@H](CCN1CCCCC1CO)[C@@H](O)[C@H](C(=O)[*:2])N(C)[*:1]; X14 = C[C@H](CCCc1ncccn1)[C@@H](O)[C@H](C(=O)[*:2])N(C)[*:1]; d(aThr) = C[C@@H](O)[C@@H](N)C(=O)O; NMeL = CN[C@@H](CC(C)C)C(=O)O; dNMeL = CN[C@H](CC(C)C)C(=O)O; dNMeV = CN[C@@H](C(=O)O)C(C)C; Hiv = CC(C)[C@H](O)C(=O)O; dAbu = CC[C@@H](N)C(=O)O; Sar = CNCC(=O)O
Legend:
[1] = molecular target: cyclophilin D (Cyp D) (Homo sapiens, UniProt P30405); assay: Protease-free PPIase assay, cyclophilin D; type: biochemical
Sequence of cyclophilin D (Cyp D) (P30405 30-207): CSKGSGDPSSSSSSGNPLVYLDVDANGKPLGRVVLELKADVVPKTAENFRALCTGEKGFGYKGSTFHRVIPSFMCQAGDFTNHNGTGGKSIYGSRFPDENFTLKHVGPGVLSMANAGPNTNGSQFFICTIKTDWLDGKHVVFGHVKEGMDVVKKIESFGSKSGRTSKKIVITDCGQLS
Description: (§1) The protease-free PPIase assay measures the rate of cis to trans conversion of a peptide substrate catalyzed by the enzymes cyclophilin A and cyclophilin D. Addition of a cyclophilin inhibitor (e.g., a test compound) slows the catalyzed rate and a Ki value is obtained. […] 35 mM HEPES pH 7.8, filtered through a 0.2 μm filter. 50 μM DTT was added prior to use each day and then the buffer was stored on ice. Succinimide-[…]) (from Bachem AG, L-1400), 20 mg/ml prepared in 0.5 M LiCl in trifluoroethanol. All readings were taken with an Agilent 8453 Spectrophotometer which consists of a cuvette holder, stirrer and chiller to maintain a stirred cuvette temperature of 10.0±0.1° C. The temperature is monitored by the use of temperature probe. […] The inhibitor was diluted in 100% DMSO, and then added to the assay to a maximum final concentration of 0.5% DMSO in the assay. A blank spectrum was obtained, then 3 μL of enzyme was added (2 nM final concentration) and then 3 μL substrate (60 μM final concentration) added. The absorbance was measured at 330 nm for 300 s or 500 s for blank runs (NOTE: the substrate must be added in one quick injection and the measurements started immediately to minimize mixing errors). A first order rate equation was fitted to the absorbance data, for each concentration of inhibitor, to obtain the rate constant (the first 10 to 15 seconds were excluded as mixing causes errors in this portion of curve). The catalytic rate was calculated from the enzymatic rate constant minus the background rate constant. An exponential curve was generated using the catalytic rate constants versus the inhibitor concentration to obtain the Ki value for the inhibitor. The Ki value is indicative of the binding affinity between the test compound and cyclophilin A or cyclophilin D.

[2] = molecular target: T1, cyclophilin A (Cyp A) (Homo sapiens, UniProt P62937); assay: Protease-free PPIase assay, cyclophilin A; type: biochemical
T1 construct: purchased Sigma C3805
T1 sequence (P62937 whole entry): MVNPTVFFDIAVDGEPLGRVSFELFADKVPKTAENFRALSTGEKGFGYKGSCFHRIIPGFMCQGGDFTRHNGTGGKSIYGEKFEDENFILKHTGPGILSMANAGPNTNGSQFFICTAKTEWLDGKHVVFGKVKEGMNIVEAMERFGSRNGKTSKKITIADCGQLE
Description: as §1, with “ice. Human recombinant cyclophilin A (Cyp A) (Sigma C3805) enzyme was diluted to 1 μM with enzyme dilution buffer (20 mM HEPES pH 7.8, 40% glycerol, 50 μM DTT and 1 μM BSA) and stored at -20° C.” for “ice.”

[3] = Water solubility assay (pH 7.8 buffer); type: physicochemical
Description: ***Water Solubility Assay (Measured in pH 7.8 Buffer)
The onset of precipitation, if it occurred, was detected by an increase in absorbance at 650 nm.
Assay Buffer: 35 mM HEPES pH 7.8
Stock solutions of Control and Test Compounds: 10 mM in 100% DMSO
10 mM stock solutions of control and test compounds were prepared in 100% DMSO. A series of dilutions were prepared from the stock in DMSO so that the final concentrations in the assay were 0, 3.33, 10, 25, 50, 75 and 100 μM and DMSO was limited to 1%.
Assay buffer (247.5 μl) was placed into flat bottomed transparent 96-well plate. For blank samples DMSO (2.5 μl) was added. For test and control samples 2.5 μl of the appropriate DMSO dilution stocks were added to the appropriate well. All test and control compounds were performed in triplicate.
The plates were sealed with adhesive plate seal and shaken at 250 rpm at 25° C. for 18 h on a plate shaker.
After incubation the plate seals were taken off and any bubbles observed in wells removed. The plates were read on a SpectraMaxM5 with a 5 s pre-shake at 650 nm.
Data files were transferred to the appropriate worksheet and the solubility range of the compounds was calculated from the data.
The values shown in the tables indicate the concentration in μM (micromolar) at which the compound remains in solution.

[4] = protease-free PPIase assay, class symbols, read-out: CypD Ki
[5] = protease-free PPIase assay, class symbols, read-out: CypA Ki
[6] = 35 mM HEPES buffer, 35 mM HEPES pH 7.8, 1% DMSO, 25° C., 18 h, concentration at which compound remains in solution, read-out: Solubility

Ki [1] [nM] | Ki [2] [nM] | solubility at 18 h ([3]; pH 7.8) [µM] | Ki [1, 4] [nM] | Ki [2, 5] [nM] | solubility at 18 h [3, 6] [µM] | Structure (SMILES)
25 to 100 | 100 to 300 | > 100 | – | – | – | CC(C)C[C@@H]1C(=O)N[C@H](CC(C)C)C(=O)N(C)[C@H](C(C)C)C(=O)N(C)[C@H]([C@H](O)[C@H](C)CCN2CCCCC2CO)C(=O)N[C@H]([C@@H](C)O)C(=O)N(C)CC(=O)N(C)[C@@H](CC(C)C)C(=O)N[C@H](CC(C)C)C(=O)N(C)[C@H](CC(C)C)C(=O)N[C@H](C)C(=O)O[C@@H](C(C)C)C(=O)N1C (stereo partly drawn) [Example 39, cyclo-[(2R,3R,4S)-4-hydroxy-1-(2-hydroxymethyl-piperidin-1-yl)-3-methyl-5-methylamino-hexanoic acid-Thr-Sar-MeLeu-Leu-MeLeu-Ala-D-Hiv-MeLeu-Leu-MeVal]] (cyclo([Hiv][dNMeL][dL][dNMeV][X15][d(aThr)][Sar][NMeL][dL][dNMeL][dA]))
1 to 25 | 1 to 25 | 25 to 50 (≈ 33.1 to 66.2 µg/mL) | – | – | – | CC(C)C[C@@H]1C(=O)N[C@H](CC(C)C)C(=O)N(C)[C@H](C(C)C)C(=O)N(C)[C@H]([C@H](O)[C@H](C)Cc2nc3ccccc3[nH]2)C(=O)N[C@H]([C@@H](C)O)C(=O)N(C)CC(=O)N(C)[C@@H](CC(C)C)C(=O)N[C@H](CC(C)C)C(=O)N(C)[C@H](CC(C)C)C(=O)N[C@H](C)C(=O)O[C@@H](C(C)C)C(=O)N1C [Example 33, cyclo-[(2R,3R,4S)-1-(1H-benzoimidazol-2-yl)-2-methyl-4-methylamino-3-hydroxy-pentanoic acid-Thr-Sar-MeLeu-Leu-MeLeu-Ala-D-Hiv-MeLeu-Leu-MeVal]] (cyclo([Hiv][dNMeL][dL][dNMeV][X22][d(aThr)][Sar][NMeL][dL][dNMeL][dA]))
25 to 100 | 100 to 300 | > 100 | – | – | – | CC(C)C[C@@H]1C(=O)N[C@H](CC(C)C)C(=O)N(C)[C@H](C(C)C)C(=O)N(C)[C@H]([C@H](O)[C@H](C)CCN2CCC[C@H]2CO)C(=O)N[C@H]([C@@H](C)O)C(=O)N(C)CC(=O)N(C)[C@@H](CC(C)C)C(=O)N[C@H](CC(C)C)C(=O)N(C)[C@H](CC(C)C)C(=O)N[C@H](C)C(=O)O[C@@H](C(C)C)C(=O)N1C [Example 26, cyclo-[(3R,4R,5S)-4-(hydroxy)-3-methyl-5-(methylamino)-1-N—((S)-1-Pyrrolidin-2-yl-methanol)-hexanoic acid-Thr-Sar-MeLeu-Leu-MeLeu-Ala-D-Hiv-MeLeu-Leu-MeVal]] (cyclo([Hiv][dNMeL][dL][dNMeV][X8][d(aThr)][Sar][NMeL][dL][dNMeL][dA]))
– | – | – | 1 to 25 | 25 to 100 | > 100 | CC(C)C[C@@H]1C(=O)N[C@H](CC(C)C)C(=O)N(C)[C@H](C(C)C)C(=O)N(C)[C@H]([C@H](O)[C@H](C)CCN(C)CC2COCCO2)C(=O)N[C@H]([C@@H](C)O)C(=O)N(C)CC(=O)N(C)[C@@H](CC(C)C)C(=O)N[C@H](CC(C)C)C(=O)N(C)[C@H](CC(C)C)C(=O)N[C@H](C)C(=O)O[C@@H](C(C)C)C(=O)N1C (stereo partly drawn) [Example 8, cyclo-{(3R,4R,5S)-4-(hydroxy)-3-methyl-5-(methylamino)-1-N-([1,4]dioxan-2-ylmethyl-methyl-amino)-hexanoic acid-Thr-Sar-MeLeu-Leu-MeLeu-Ala-D-Hiv-MeLeu-Leu-MeVal}] (cyclo([Hiv][dNMeL][dL][dNMeV][X24][d(aThr)][Sar][NMeL][dL][dNMeL][dA]))
– | – | – | 1 to 25 | 1 to 25 | 10 to 25 (≈ 13.8 to 34.5 µg/mL) | CC(C)C[C@@H]1C(=O)N[C@H](CC(C)C)C(=O)N(C)[C@H](C(C)C)C(=O)N(C)[C@H]([C@H](O)[C@H](C)CCN2CCC(c3ccccc3)CC2)C(=O)N[C@H]([C@@H](C)O)C(=O)N(C)CC(=O)N(C)[C@@H](CC(C)C)C(=O)N[C@H](CC(C)C)C(=O)N(C)[C@H](CC(C)C)C(=O)N[C@H](C)C(=O)O[C@@H](C(C)C)C(=O)N1C [Example 34, cyclo-[(3R,4R,5S)-4-(hydroxy)-3-methyl-5-(methylamino)-1-(4-phenyl-1-piperidyl)-hexanoic acid-Thr-Sar-MeLeu-Leu-MeLeu-Ala-D-Hiv-MeLeu-Leu-MeVal]] (cyclo([Hiv][dNMeL][dL][dNMeV][X28][d(aThr)][Sar][NMeL][dL][dNMeL][dA]))
– | – | – | 1 to 25 | 1 to 25 | 50 to 75 (≈ 67.1 to 101 µg/mL) | CC(C)C[C@@H]1C(=O)N[C@H](CC(C)C)C(=O)N(C)[C@H](C(C)C)C(=O)N(C)[C@H]([C@H](O)[C@H](C)CCN(C)Cc2ccncc2)C(=O)N[C@H]([C@@H](C)O)C(=O)N(C)CC(=O)N(C)[C@@H](CC(C)C)C(=O)N[C@H](CC(C)C)C(=O)N(C)[C@H](CC(C)C)C(=O)N[C@H](C)C(=O)O[C@@H](C(C)C)C(=O)N1C [Example 3, cyclo-[(3R,4R,5S)-4-(hydroxy)-3-methyl-5-(methylamino)-1-N-(methyl-pyridin-4-ylmethyl-amino)-hexanoic acid-Thr-Sar-MeLeu-Leu-MeLeu-Ala-D-Hiv-MeLeu-Leu-MeVal]] (cyclo([Hiv][dNMeL][dL][dNMeV][X12][d(aThr)][Sar][NMeL][dL][dNMeL][dA]))
1 to 25 | 1 to 25 | 10 to 25 (≈ 13.1 to 32.8 µg/mL) | – | – | – | CC[C@H]1NC(=O)[C@@H]([C@H](O)[C@H](C)CCCc2cccc(C)n2)N(C)C(=O)[C@@H](C(C)C)N(C)C(=O)[C@@H](CC(C)C)NC(=O)[C@@H](CC(C)C)N(C)C(=O)[C@H](C(C)C)OC(=O)[C@@H](C)NC(=O)[C@@H](CC(C)C)N(C)C(=O)[C@@H](CC(C)C)NC(=O)[C@H](CC(C)C)N(C)C(=O)CN(C)C1=O [Example 21, cyclo-[(3R,4R,5S)-4-(hydroxy)-3-methyl-5-(methylamino)-1-(6-methyl-pyridin-2-yl)-heptanoic acid-Abu-Sar-MeLeu-Leu-MeLeu-Ala-D-Hiv-MeLeu-Leu-MeVal]] (cyclo([Hiv][dNMeL][dL][dNMeV][X1][dAbu][Sar][NMeL][dL][dNMeL][dA]))
1 to 25 | 1 to 25 | 25 to 50 (≈ 32.8 to 65.7 µg/mL) | – | – | – | CC(C)C[C@@H]1C(=O)N[C@H](CC(C)C)C(=O)N(C)[C@H](C(C)C)C(=O)N(C)[C@H]([C@H](O)[C@H](C)CCCc2ncccn2)C(=O)N[C@H]([C@@H](C)O)C(=O)N(C)CC(=O)N(C)[C@@H](CC(C)C)C(=O)N[C@H](CC(C)C)C(=O)N(C)[C@H](CC(C)C)C(=O)N[C@H](C)C(=O)O[C@@H](C(C)C)C(=O)N1C [Example 16, cyclo-[(3R,4R,5S)-4-(hydroxy)-3-methyl-5-(methylamino)-1-(pyrimidin-2-yl)-heptanoic acid-Thr-Sar-MeLeu-Leu-MeLeu-Ala-D-Hiv-MeLeu-Leu-MeVal]] (cyclo([Hiv][dNMeL][dL][dNMeV][X14][d(aThr)][Sar][NMeL][dL][dNMeL][dA]))
